Laboratory results published in patent US4011182A, “Cyclic undecapeptide analogs of somatostatin and intermediates” (American Home Products Corporation, priority 1975, dated 1977).
Read-outs that look alike come from different tables or passages of the source. Where a SMILES comes first, the peptide text is derived from it.

Columns and labels:
glucagon = assay: In vivo assay of simultaneous release of growth hormone, insulin and glucagon (pentobarbital, arginine): glucagon; design: species or system rats
Procedure: (§1) Another test was conducted with the compound of Example 5 to determine its effect upon insulin and glucagon levels. The in vivo assay determining simultaneous release of growth hormone, insulin and glucagon was carried out by injecting three groups of male rats weighing about 200 to 250 g. (9 animals per group) with pentobarbital intraperitoneally at a dose of 50 mg/kg per rat followed 15 minutes […], a subcutaneous injection of SRIF at a dose of 0.2 mg/kg to another group of rats and a subcutaneous injection of saline solution to the third group of rats. Ten minutes after such injection the rats receive 150 mg. arginine in 0.5 ml. saline directly in the heart. Five minutes later the rats are decapitated, the blood collected and various radioimmunoassays are run.

insulin = assay: In vivo assay of simultaneous release of growth hormone, insulin and glucagon (pentobarbital, arginine): insulin; design: species or system rats
Procedure: as §1, with “pentobarbital” for “pentobarbital intraperitoneally at a dose of 50 mg/kg per rat followed 15 minutes”

growth hormone [1] = test system: growth hormone
Procedure: Another test was conducted with the compound of Example 5 to determine its effect upon insulin and glucagon levels. The in vivo assay determining simultaneous release of growth hormone, insulin and glucagon was carried out by injecting three groups of male rats weighing about 200 to 250 g. (9 animals per group) with pentobarbital intraperitoneally at a dose of 50 mg/kg per rat followed 15 minutes later by a subcutaneous injection of the compound of Example 5 at a dose of 2.7 mg/kg to one group of rats, a subcutaneous injection of SRIF at a dose of 0.2 mg/kg to another group of rats and a subcutaneous injection of saline solution to the third group of rats. Ten minutes after such injection the rats receive 150 mg. arginine in 0.5 ml. saline directly in the heart. Five minutes later the rats are decapitated, the blood collected and various radioimmunoassays are run.

growth hormone [2] = assay: Growth hormone level by radioimmunoassay in nembutal-treated rats after subcutaneous injection; assay type: in vivo
Procedure: The growth hormone activities of the compounds of Example 5 was determined by injecting rats weighing about 200-250 g. first with nembutal intraperitoneally at a dose of 50 mg/kg then after 5 minutes injecting the rats subcutaneously with a solution of the compound of Example 5 in saline at a dose of 2 mg/kg per rat. Blood samples are taken 15 minutes after injection with the compound of Example 5 and the growth hormone level determined by radioimmunoassay. […] The foregoing experiment was repeated but the dose of the compound of Example 5 was raised to 2.38 mg/kg and the blood was sampled 2 hours after injection.

[3] = male rats, 2.7 mg/kg subcutaneously, arginine stimulated

## L-Lysyl-L-asparaginyl-L-phenylalanyl-L-phenylalanyl-D-tryptophyl-L-lysyl-L- threonyl-L-phenylalanyl-L-threonyl-L-seryl-glutamyl-(cyclo-α-lysyl to γ-glutamyl)peptide [Example 6]
glucagon; experiment 3, dose 3,000 μg/kg, control 129±9
  Glucagon: 107±9 picog/ml
insulin; experiment 1, dose 3,000 μg/kg, control 194±17
  Insulin: 152±13 μU/ml
insulin; experiment 3, dose 3,000 μg/kg, control 183±19
  Insulin: 93±9 μU/ml
Growth hormone [1]; experiment 1, dose 3,000 μg/kg, control 247±52
  GH: 61 ± 7 ng/mL
Growth hormone [1]; experiment 2, dose 12 μg/kg, control 315±22
  GH: 192 ± 29 ng/mL
Growth hormone [2]; rats, 1,500 μg/kg, after four hours, control 182 ± 49
  growth hormone level: 34 ± 11 nanograms per milliliter
Growth hormone [2]; rats, 1,500 μg/kg, two hours after administration, control 180 ± 27
  growth hormone level: 18 ± 4 nanograms per milliliter

## C[C@@H](O)[C@@H]1NC(=O)[C@H](Cc2ccccc2)NC(=O)[C@H]([C@@H](C)O)NC(=O)[C@H](CCCCN)NC(=O)[C@H](Cc2c[nH]c3ccccc23)NC(=O)[C@H](Cc2ccccc2)NC(=O)[C@H](Cc2ccccc2)NC(=O)[C@H](CC(N)=O)NC(=O)[C@H](CCCCN)NC(=O)CC[C@@H](C(=O)O)NC(=O)[C@H](CO)NC1=O [Example 5, L-lysyl-L-asparaginyl-L-phenylalanyl-L-phenylalanyl-L-tryptophyl-L-lysyl-L- threonyl-L-phenylalanyl-L-threonyl-L-seryl-L-glutamyl (cyclo α-lysyl to γ-glutamyl) peptide] (HELM PEPTIDE1{K.N.F.F.W.K.T.F.T.S.E}$PEPTIDE1,PEPTIDE1,1:R1-11:R3$$$V2.0)
glucagon; [3]
  glucagon levels: neither glucagon nor insulin levels were lowered
insulin; [3]
  insulin levels: neither glucagon nor insulin levels were lowered
Growth hormone [2]; rats, 2 mg/kg subcutaneously, blood 15 minutes after injection, control 132 ± 20
  growth hormone level: 79 ± 14 ng/mL
Growth hormone [2]; rats, 2.38 mg/kg subcutaneously, blood 2 hours after injection, control 244 ± 38
  growth hormone level: 89 ± 23 ng/mL
